For one series, the target named is D(2) dopamine receptor (Homo sapiens, UniProt P14416). Kind of series: Displacement of [125I]iodosulpiride from human Dopamine receptor D2 expressed in CHO cells. Format: cell-based. Background: In a radioligand displacement assay an active substance lowers the binding of a labelled ligand.
The target of another series is D(3) dopamine receptor (Homo sapiens, UniProt P35462). Kind of series: Displacement of [125I]iodosulpiride from human Dopamine receptor D3 expressed in CHO cells. The series is classed as cell-based.
D(3) dopamine receptor, sequence (P35462 whole entry): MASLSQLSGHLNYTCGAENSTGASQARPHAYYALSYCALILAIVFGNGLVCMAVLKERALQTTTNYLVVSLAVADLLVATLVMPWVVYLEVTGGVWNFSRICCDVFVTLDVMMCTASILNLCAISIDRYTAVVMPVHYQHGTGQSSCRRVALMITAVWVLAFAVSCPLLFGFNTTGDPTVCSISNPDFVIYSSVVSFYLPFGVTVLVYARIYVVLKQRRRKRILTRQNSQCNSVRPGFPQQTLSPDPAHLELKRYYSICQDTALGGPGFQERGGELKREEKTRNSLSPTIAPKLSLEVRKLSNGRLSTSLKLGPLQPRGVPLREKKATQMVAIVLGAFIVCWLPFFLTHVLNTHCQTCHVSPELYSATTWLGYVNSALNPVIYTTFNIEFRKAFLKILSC
The target of series [1] is 5-hydroxytryptamine receptor 1B (Homo sapiens, UniProt P28222). Kind of series: Evaluated for the binding affinity to 5-hydroxytryptamine 1B receptor.
5-hydroxytryptamine receptor 1B, sequence (P28222 whole entry): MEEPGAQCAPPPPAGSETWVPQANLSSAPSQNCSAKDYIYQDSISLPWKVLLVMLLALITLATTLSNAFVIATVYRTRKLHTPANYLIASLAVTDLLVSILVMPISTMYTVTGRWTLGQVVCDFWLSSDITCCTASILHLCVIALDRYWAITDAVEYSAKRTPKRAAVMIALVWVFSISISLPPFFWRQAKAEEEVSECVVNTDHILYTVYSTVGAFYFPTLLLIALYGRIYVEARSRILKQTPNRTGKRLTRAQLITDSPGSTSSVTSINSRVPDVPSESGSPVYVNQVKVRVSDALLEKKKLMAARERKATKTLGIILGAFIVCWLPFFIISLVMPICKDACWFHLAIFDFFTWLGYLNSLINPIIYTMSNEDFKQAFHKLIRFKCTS
A short description of series [2]: Evaluated for the bioavailability in rat (in vivo). The series is classed as ADME, organism-based.
Series [3] deals with T1, 5-hydroxytryptamine receptor 2C (Homo sapiens, UniProt P28335).
T1 sequence (P28335 whole entry): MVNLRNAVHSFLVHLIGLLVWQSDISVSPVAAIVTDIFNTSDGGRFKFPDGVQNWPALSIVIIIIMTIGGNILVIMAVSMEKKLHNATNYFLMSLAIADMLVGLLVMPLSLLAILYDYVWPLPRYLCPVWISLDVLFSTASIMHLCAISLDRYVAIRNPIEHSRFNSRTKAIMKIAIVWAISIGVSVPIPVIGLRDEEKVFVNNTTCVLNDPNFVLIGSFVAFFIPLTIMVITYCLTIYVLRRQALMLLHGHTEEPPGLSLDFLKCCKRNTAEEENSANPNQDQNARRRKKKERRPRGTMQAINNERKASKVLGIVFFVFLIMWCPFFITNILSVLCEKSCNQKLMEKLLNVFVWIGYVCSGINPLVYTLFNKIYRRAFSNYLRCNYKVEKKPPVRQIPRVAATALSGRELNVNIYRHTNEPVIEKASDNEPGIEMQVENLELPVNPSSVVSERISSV
Kind of series: Evaluated for the binding affinity to 5-hydroxytryptamine 2C receptor.

Series [4] has as its target D(3) dopamine receptor (Rattus norvegicus) (UniProt P19020). Kind of series: Antagonistic activity at D3 receptor using in vitro functional assay.
In series [5] the target is 5-hydroxytryptamine receptor 2B (Homo sapiens, UniProt P41595). Kind of series: Evaluated for the binding affinity to 5-HT 2B receptor.
5-hydroxytryptamine receptor 2B, sequence (P41595 whole entry): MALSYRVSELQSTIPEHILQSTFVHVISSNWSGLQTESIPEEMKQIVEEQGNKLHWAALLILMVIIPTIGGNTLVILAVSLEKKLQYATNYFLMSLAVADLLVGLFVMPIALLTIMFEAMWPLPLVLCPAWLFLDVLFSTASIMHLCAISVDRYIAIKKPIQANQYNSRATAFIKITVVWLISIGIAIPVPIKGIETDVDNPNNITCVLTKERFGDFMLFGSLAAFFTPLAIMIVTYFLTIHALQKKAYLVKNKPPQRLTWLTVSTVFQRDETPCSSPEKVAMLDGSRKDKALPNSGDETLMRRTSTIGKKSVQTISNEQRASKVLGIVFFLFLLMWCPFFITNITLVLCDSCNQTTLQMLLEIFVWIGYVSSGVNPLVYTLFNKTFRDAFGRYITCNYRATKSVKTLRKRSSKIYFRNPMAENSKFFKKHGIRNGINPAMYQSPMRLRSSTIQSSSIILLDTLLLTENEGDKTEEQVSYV
In series [6] the target is 5-hydroxytryptamine receptor 6 (Homo sapiens, UniProt P50406). Kind of series: Evaluated for the binding affinity towards 5-hydroxytryptamine 6 receptor.
5-hydroxytryptamine receptor 6, sequence (P50406 whole entry): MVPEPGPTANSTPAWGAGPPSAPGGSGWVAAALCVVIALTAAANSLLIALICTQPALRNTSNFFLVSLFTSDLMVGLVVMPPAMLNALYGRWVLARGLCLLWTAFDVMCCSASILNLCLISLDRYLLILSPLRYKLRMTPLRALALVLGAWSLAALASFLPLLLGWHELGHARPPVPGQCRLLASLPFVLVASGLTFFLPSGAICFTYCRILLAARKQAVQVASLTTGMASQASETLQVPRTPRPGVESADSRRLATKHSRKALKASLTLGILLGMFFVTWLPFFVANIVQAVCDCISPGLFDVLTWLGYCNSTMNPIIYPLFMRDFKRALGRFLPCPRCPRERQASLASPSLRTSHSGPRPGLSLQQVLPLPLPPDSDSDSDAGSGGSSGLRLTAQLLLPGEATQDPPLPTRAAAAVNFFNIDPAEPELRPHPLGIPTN
For series [7], the target named is T2, Alpha-1B adrenergic receptor (Homo sapiens, UniProt P35368).
T2 sequence (P35368 whole entry): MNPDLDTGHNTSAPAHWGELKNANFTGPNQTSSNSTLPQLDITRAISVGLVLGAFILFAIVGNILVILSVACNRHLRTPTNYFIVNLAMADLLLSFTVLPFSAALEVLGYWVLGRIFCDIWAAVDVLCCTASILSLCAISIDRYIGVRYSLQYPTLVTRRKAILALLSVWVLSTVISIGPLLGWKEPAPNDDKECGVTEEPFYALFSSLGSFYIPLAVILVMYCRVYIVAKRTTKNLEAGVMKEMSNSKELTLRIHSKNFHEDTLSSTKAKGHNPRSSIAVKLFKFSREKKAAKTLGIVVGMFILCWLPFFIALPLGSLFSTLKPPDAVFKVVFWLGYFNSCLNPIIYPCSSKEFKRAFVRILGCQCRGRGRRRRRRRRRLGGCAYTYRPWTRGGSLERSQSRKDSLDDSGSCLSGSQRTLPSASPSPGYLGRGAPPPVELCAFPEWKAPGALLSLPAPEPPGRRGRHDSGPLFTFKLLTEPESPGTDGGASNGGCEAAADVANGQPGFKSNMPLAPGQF
Kind of series: Evaluated for the binding affinity to alpha 1B receptor.

Series [8] is described as follows: Evaluated for the half life in rat (in vivo). Format: ADME, organism-based.
Series [9] can be described thus: Evaluated for the low clearance in rat (in vivo). The conditions noted are these: blood, read-out: CLb. Format: ADME, organism-based.
In series [10] the target is 5-hydroxytryptamine receptor 1D (Homo sapiens, UniProt P28221). Kind of series: Evaluated for the binding affinity against 5-hydroxytryptamine 1D receptor.
5-hydroxytryptamine receptor 1D, sequence (P28221 whole entry): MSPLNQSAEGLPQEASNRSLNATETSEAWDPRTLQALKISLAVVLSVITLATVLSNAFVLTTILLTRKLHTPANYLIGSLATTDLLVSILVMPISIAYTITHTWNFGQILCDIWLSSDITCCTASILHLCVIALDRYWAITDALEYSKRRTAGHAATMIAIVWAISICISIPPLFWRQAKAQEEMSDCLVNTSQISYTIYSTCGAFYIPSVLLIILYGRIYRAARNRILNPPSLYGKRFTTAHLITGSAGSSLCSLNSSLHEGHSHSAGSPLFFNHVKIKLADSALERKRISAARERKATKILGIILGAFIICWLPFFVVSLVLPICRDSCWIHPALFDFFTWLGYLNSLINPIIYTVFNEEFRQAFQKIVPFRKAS
The target of series [11] is 5-hydroxytryptamine receptor 7 (Homo sapiens, UniProt P34969). Kind of series: Evaluated for the binding affinity to 5-hydroxytryptamine 7 receptor.
5-hydroxytryptamine receptor 7, sequence (P34969 whole entry): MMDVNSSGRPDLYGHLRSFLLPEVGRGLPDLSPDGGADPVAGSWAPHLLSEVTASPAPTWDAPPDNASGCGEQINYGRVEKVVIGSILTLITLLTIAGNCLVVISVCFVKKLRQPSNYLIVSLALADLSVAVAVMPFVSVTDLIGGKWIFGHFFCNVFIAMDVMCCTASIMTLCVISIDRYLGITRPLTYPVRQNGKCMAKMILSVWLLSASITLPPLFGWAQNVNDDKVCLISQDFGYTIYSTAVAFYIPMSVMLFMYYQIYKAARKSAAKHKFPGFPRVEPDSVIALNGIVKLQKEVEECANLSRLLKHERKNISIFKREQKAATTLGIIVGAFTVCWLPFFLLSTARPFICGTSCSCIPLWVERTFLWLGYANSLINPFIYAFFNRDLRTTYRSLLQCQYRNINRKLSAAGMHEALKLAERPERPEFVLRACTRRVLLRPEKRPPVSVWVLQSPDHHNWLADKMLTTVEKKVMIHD
Series [12] has as its target T3, 5-hydroxytryptamine receptor 1A (Homo sapiens, UniProt P08908).
T3 sequence (P08908 whole entry): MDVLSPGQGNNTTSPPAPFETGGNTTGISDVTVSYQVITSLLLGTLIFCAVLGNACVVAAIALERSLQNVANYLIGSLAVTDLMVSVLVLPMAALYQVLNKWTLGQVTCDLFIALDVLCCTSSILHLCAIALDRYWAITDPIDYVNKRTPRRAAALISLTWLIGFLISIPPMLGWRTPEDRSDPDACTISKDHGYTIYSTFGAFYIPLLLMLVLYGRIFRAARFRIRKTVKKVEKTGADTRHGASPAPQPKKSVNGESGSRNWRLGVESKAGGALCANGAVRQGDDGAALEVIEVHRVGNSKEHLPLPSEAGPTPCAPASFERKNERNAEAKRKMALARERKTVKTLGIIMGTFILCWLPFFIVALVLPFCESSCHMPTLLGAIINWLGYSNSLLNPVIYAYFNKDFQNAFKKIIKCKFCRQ
Kind of series: Evaluated for the binding affinity to 5-hydroxytryptamine 1A receptor.

Series [13] concerns the target 5-hydroxytryptamine receptor 2A (Homo sapiens, UniProt P28223). Kind of series: Evaluated for the binding affinity towards 5-hydroxytryptamine 2A receptor.

Where only a bound is given, the exact number is not on record here.

D(2) dopamine receptor, sequence (P14416 whole entry): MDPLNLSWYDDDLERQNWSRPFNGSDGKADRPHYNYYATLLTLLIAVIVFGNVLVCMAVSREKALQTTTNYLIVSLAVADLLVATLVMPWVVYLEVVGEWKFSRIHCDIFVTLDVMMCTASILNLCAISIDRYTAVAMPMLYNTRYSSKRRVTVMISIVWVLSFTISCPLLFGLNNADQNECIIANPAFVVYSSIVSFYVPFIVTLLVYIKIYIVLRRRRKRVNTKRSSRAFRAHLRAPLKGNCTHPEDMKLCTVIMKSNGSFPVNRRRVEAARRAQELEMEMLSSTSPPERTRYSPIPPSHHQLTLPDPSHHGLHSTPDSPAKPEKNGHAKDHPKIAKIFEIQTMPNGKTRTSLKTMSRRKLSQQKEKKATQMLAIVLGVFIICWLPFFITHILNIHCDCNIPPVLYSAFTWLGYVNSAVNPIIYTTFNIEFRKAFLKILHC
D(3) dopamine receptor (Rattus norvegicus), sequence (P19020 whole entry): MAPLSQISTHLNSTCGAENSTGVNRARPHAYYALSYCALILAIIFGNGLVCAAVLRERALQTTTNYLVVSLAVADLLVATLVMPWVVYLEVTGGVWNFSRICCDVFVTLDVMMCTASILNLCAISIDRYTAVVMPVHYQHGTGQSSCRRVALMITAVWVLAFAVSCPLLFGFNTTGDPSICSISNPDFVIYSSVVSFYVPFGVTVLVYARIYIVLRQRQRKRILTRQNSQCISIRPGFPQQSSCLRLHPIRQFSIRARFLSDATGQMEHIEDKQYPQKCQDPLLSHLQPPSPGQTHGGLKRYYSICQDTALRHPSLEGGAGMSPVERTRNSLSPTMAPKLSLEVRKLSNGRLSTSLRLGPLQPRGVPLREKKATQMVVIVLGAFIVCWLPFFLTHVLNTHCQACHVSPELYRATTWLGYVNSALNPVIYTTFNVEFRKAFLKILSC
5-hydroxytryptamine receptor 2A, sequence (P28223 whole entry): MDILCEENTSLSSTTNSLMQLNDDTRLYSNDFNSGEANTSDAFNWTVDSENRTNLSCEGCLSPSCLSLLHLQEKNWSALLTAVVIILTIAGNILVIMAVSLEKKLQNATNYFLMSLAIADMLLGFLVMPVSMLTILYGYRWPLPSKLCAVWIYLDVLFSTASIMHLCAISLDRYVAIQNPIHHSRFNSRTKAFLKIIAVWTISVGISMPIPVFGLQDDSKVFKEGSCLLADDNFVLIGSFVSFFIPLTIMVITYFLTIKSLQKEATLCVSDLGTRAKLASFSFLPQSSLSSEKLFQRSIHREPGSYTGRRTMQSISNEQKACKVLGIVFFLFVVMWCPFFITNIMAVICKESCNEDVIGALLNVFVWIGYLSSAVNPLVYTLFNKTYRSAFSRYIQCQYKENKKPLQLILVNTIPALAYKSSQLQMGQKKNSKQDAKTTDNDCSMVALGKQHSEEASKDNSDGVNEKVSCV

As a reminder, the Ki is the equilibrium dissociation constant of an inhibitor or competing ligand from its target. Turning to `COc1cccc(/C=C/C(=O)N[C@H]2CC[C@H](CCN3Cc4ccc(C#N)cc4C3)CC2)c1`, the Ki at D(2) dopamine receptor was 1000 nM; on D(3) dopamine receptor, 10 nM.
The matching figures for `N#Cc1ccc2c(c1)CN(CC[C@H]1CC[C@H](NC(=O)/C=C/c3ccc(F)cc3)CC1)C2`: 631 nM and 12.6 nM.
The matching figures for `O=C(/C=C/c1ccc(F)cc1)N[C@H]1CC[C@H](CCN2Cc3ccc(Br)cc3C2)CC1`: 100 nM and 3.16 nM.
In general, bioavailability refers to the share of a dose that reaches the circulation, judged against a reference dose that is usually intravenous. Read a low bioavailability as poor availability. A word on the pKb: it is the Kb on a negative log10 scale, so that one unit is a factor of ten. Read a low pKb as a high Kb. The term half-life denotes how long it takes for the measured level to halve. A low value points to fast loss. In the case of `CS(=O)(=O)Oc1ccc2c(c1)CN(CC[C@H]1CC[C@H](NC(=O)/C=C/c3ccc(F)cc3)CC1)C2`, the Ki is 5010 nM in [1]; over 7940 nM in [3]; over 1000 nM in [5]; over 10000 nM in [6]; over 5010 nM in [7]; 501 nM at D(2) dopamine receptor. Also, the Ki in series [10] is 1260 nM; in series [11] it was over 3980 nM; in series [12], 3160 nM; at D(3) dopamine receptor, 5.01 nM; in series [13], over 5010 nM. Also, the bioavailability in series [2] was 77%. In series [4], this compound yielded a negative-log Kb (pKb) of 8.3. Moreover, the half-life in series [8] is 5.2 h. In addition, the clearance in series [9] was 14 mL/min/kg.
With `N#Cc1ccc2c(c1)CN(CC[C@H]1CC[C@H](NC(=O)c3ccnc4ccccc34)CC1)C2`, the figures for the Ki on D(2) dopamine receptor and at D(3) dopamine receptor were 2510 nM and 63.1 nM, respectively.
The matching figures for `N#Cc1ccc2c(c1)CN(CC[C@H]1CC[C@H](NC(=O)c3cc4ccccc4[nH]3)CC1)C2`: 2510 nM and 25.1 nM.
The matching figures for `O=C(/C=C/c1ccc(F)cc1)N[C@H]1CC[C@H](CCN2Cc3ccc(C(F)(F)F)cc3C2)CC1`: 398 nM and 10 nM.
The matching figures for `COc1ccc2c(c1)CN(CC[C@H]1CC[C@H](NC(=O)/C=C/c3ccc(F)cc3)CC1)C2`: 200 nM and 7.94 nM.

Values taken from ChEMBL document CHEMBL1134827, “Design and synthesis of novel 2,3-dihydro-1H-isoindoles with high affinity and selectivity for the dopamine D3 receptor” (Bioorg Med Chem Lett, 2001).
